For 19 molecules, IC50 results are on record in patent US9840498B2, “Substituted quinazolin-4-one derivatives” (NOVARTIS AG, priority 2013, dated 2017).

PI 3-Kinase Gamma, sequence (P48736 whole entry): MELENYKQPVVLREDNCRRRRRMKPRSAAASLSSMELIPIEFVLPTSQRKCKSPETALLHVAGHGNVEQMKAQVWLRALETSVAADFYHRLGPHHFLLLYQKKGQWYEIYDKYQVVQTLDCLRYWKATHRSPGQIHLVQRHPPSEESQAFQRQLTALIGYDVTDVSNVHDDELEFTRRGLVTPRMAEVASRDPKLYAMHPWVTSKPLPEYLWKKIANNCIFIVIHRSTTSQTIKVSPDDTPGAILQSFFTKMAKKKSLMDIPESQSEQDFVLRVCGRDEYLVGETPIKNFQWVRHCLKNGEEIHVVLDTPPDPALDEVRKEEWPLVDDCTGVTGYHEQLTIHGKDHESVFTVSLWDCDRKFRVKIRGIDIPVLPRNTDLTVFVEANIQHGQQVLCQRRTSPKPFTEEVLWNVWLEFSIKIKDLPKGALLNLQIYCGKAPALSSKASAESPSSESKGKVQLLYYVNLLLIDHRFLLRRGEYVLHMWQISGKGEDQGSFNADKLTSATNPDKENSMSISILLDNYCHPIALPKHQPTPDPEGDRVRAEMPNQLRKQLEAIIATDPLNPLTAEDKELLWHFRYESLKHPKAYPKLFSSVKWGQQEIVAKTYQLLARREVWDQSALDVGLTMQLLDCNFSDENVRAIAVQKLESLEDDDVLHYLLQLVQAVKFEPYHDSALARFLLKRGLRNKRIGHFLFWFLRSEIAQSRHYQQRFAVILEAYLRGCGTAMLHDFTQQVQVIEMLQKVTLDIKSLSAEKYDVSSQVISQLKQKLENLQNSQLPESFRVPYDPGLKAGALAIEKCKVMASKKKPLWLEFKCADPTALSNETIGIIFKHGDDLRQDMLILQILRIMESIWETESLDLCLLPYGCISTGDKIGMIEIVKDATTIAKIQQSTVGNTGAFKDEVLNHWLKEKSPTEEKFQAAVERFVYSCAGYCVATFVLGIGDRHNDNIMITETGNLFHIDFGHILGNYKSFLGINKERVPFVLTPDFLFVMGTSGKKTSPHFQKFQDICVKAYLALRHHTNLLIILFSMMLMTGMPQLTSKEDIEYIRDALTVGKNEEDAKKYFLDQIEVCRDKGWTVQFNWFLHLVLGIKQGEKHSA

The target in this assay is PI 3-Kinase Gamma (Homo sapiens (Human), UniProt P48736). In words: Cellular U937 AKT assay for PI 3-kinase gamma. It counts as cell-based. The conditions noted are these: U937 cells, MIP1α-stimulated AKT phosphorylation, read-out: Cell PI3K gamma IC50. Here is the method:
The U937 monocyte cell line is maintained in a basal medium of RPMI 1640 supplemented with 10% heat inactivated FCS, 100 U/ml Penicillin, 100 ug/ml streptomycin and 2 mM L-glutamine (Invitrogen). U937 suspension culture is maintained by seeding cells at a density of 0.125×10^6 cells per ml in fresh medium every three or four days. Cells are incubated at 37° C., 5% CO2. […] Before beginning the cell manipulations described below, the MSD (Meso Scale Discovery) assay plate is blocked by addition of 150 ul/well blocking buffer supplied and incubated with shaking for a minimum of one hour at room temperature. All steps of the assay must be performed quickly, with accurately timed incubation periods and observing temperature controls where indicated. […] Falcon tube, counted and centrifuged for eight minutes at 300 g at room temperature. Supernatant is aspirated, the cell pellet resuspended and washed once in HBSS (Hank's Balanced Salt Solution) by centrifugation for eight minutes at 300 g at room temperature. The cell pellet is resuspended in HBSS to a concentration of 4×10^6 per ml, and 100 μL of cell suspension added to each well of a flat-bottomed 96-well tissue culture plate. Assay plates are incubated for 1.5 hours at 37° C., 5% CO2 to allow background AKT phosphorylation to reduce before the compound stimulation step. […] Compound concentrations at this stage are 4-times the final concentration required in the assay plate. Cells are stimulated with compound or HBSS 0.8% DMSO by direct transfer of 50 ul/well from the compound dilution plate. The assay plate containing compound-treated cells is then incubated for 30 minutes at 37° C. A standard plate layout is used for all experiments. Compound-treated cells, in addition to positive control wells (“max MIP1α”), are stimulated with 50 μL per well of 40 ng/ml MIP1α (R&D Systems catalogue number 270-LD, lyophilized stock reconstituted to 50 μg/ml with PBS 0.1% BSA). Negative control wells (“min HBSS”), are stimulated with 50 μl/well of HBSS in the absence of MIP1α. […] Cells are incubated with MIP1α for 3 minutes, at 37° C., 5% CO2. After the three minute stimulation period, the assay plate is kept ice cold at all times. Assay plates are centrifuged for 2 minutes at 300 g, 4° C. and supernatant is removed by gently inverting, and then blotting the plate on tissue. Cells are then washed by gentle addition of 150 μL/well of ice cold HBSS and centrifugation at 300 g, for 5 minutes at 4° C. Supernatant is aspirated and the plate blotted as described above. The plate is placed on ice and cells are immediately treated with 35 μL per well of ice cold lysis buffer, prepared according to the kit instructions (per assay plate, to 5 ml of Tris lysis buffer add 100 μl of 50× protease inhibitor solution and 50 μl of each 100× phosphatase inhibitor solutions I and II). Plates are incubated on ice for 20 minutes before centrifugation at 841 g for 5 minutes, 4° C. Block buffer is aspirated from the MSD plate, and the plate washed four times with 300 μl/well Tris wash buffer. 25 μL of cell lysate is then transferred from the assay plate to the washed MSD plate which is sealed and incubated at room temperature for one hour with shaking. The plate is washed four times with 300 μL per well of Tris wash buffer before addition of 25 μL per well of sulfo-tag anti-total AKT/pAKT detection antibody (60 μl of 50× antibody stock is diluted in 1 ml block buffer mixed with 2 ml wash buffer) and incubated at room temperature for one hour with shaking. The plate is washed four times with 300 μl per well of Tris wash buffer and 150 μl per well of Read buffer is added, taking care to avoid the introduction of bubbles. The plate is immediately read using an MSD SECTOR Imager 6000. Results are exported in Excel and the percentage of phosphorylated AKT is calculated using the equation: % Phosphoprotein=((2*Phospho signal)/(Phospho signal+Total signal))*100. […]
Take `Cc1nc(N)nc(N2C[C@@H](O)C[C@H]2c2nc3ccc(F)c(-c4cnn(C)c4)c3c(=O)n2-c2ccccc2)c1C#N` [Example 1, 2-Amino-4-((2S,4S)-2-(6-fluoro-5-(1-methyl-1H-pyrazol-4-yl)-4-oxo-3-phenyl-3,4-dihydroquinazolin-2-yl)-4-hydroxypyrrolidin-1-yl)-6-methylpyrimidine-5-carbonitrile]: the 50% inhibitory concentration (IC50) (usually the concentration that inhibits the measured activity by half) worked out at 32 nM.
As to `COc1ncc(-c2cccc3nc([C@@H]4CCCN4c4ncnc(N)c4C#N)n(-c4ccccc4)c(=O)c23)cn1` [Example 3, (S)-4-Amino-6-(2-(5-(2-methoxypyrimidin-5-yl)-4-oxo-3-phenyl-3,4-dihydroquinazolin-2-yl)pyrrolidin-1-yl)pyrimidine-5-carbonitrile], the half-maximal inhibitory concentration (IC50) came to 430 nM.
In the case of `COc1ncc(-c2cccc3nc([C@@H]4CCCN4c4nc(N)nc(C)c4C#N)n(-c4ccccc4)c(=O)c23)cn1` [Example 4, (S)-2-Amino-4-(2-(5-(2-methoxypyrimidin-5-yl)-4-oxo-3-phenyl-3,4-dihydroquinazolin-2-yl)pyrrolidin-1-yl)-6-methylpyrimidine-5-carbonitrile], the 50% inhibitory concentration (IC50) was 40 nM.
Turning to `Cn1cc(-c2c(F)ccc3nc([C@@H]4CCCN4c4ncnc(N)c4C#N)n(-c4ccccc4)c(=O)c23)cn1` [Example 5, (S)-4-Amino-6-(2-(6-fluoro-5-(1-methyl-1H-pyrazol-4-yl)-4-oxo-3-phenyl-3,4-dihydroquinazolin-2-yl)pyrrolidin-1-yl)pyrimidine-5-carbonitrile], the half-inhibitory concentration (IC50) was 220 nM.
With `Cc1nc(N)nc(N2CCC[C@H]2c2nc3ccc(F)c(-c4cnn(C)c4)c3c(=O)n2-c2ccccc2)c1C#N` [Example 6, (S)-2-Amino-4-(2-(6-fluoro-5-(1-methyl-1H-pyrazol-4-yl)-4-oxo-3-phenyl-3,4-dihydroquinazolin-2-yl)pyrrolidin-1-yl)-6-methylpyrimidine-5-carbonitrile], the half-maximal inhibitory concentration (IC50) worked out at 41 nM.
As for `COc1ncc(-c2c(F)ccc3nc([C@@H]4C[C@H](O)CN4c4nc(N)nc(C)c4C#N)n(-c4ccccc4)c(=O)c23)cn1` [Example 7, 2-Amino-4-((2S,4S)-2-(6-fluoro-5-(2-methoxypyrimidin-5-yl)-4-oxo-3-phenyl-3,4-dihydroquinazolin-2-yl)-4-hydroxypyrrolidin-1-yl)-6-methylpyrimidine-5-carbonitrile], the figure is 25 nM.
Consider `Cn1cc(-c2c(F)ccc3nc([C@@H]4C[C@H](O)CN4c4ncnc(N)c4C#N)n(-c4ccccc4)c(=O)c23)cn1` [Example 8, 4-Amino-6-((2S,4S)-2-(6-fluoro-5-(1-methyl-1H-pyrazol-4-yl)-4-oxo-3-phenyl-3,4-dihydroquinazolin-2-yl)-4-hydroxypyrrolidin-1-yl) pyrimidine-5-carbonitrile], for which the half-inhibitory concentration (IC50) is 29 nM.
As to `COc1ncc(-c2c(F)ccc3nc([C@@H]4C[C@H](O)CN4c4nc(N)nc(C)c4C#N)n(-c4ccccc4)c(=O)c23)s1` [Example 9, 2-Amino-4-((2S,4S)-2-(6-fluoro-5-(2-methoxythiazol-5-yl)-4-oxo-3-phenyl-3,4-dihydroquinazolin-2-yl)-4-hydroxypyrrolidin-1-yl)-6-methylpyrimidine-5-carbonitrile], the IC50 came to 56 nM.
As for `CO[C@H]1C[C@@H](c2nc3cccc(-c4cnn(C)c4)c3c(=O)n2-c2ccccc2)N(c2nc(N)nc(C)c2C#N)C1` [Example 10, 2-Amino-4-((2S,4S)-4-methoxy-2-(5-(1-methyl-1H-pyrazol-4-yl)-4-oxo-3-phenyl-3,4-dihydroquinazolin-2-yl)pyrrolidin-1-yl)-6-methylpyrimidine-5-carbonitrile], the figure is 38 nM.
Regarding `CO[C@H]1C[C@@H](c2nc3cccc(-c4cnn(C)c4)c3c(=O)n2-c2ccccc2)N(c2nc(N)nc3[nH]cnc23)C1` [Example 11, 2-((2S,4S)-1-(2-Amino-9H-purin-6-yl)-4-methoxypyrrolidin-2-yl)-5-(1-methyl-1H-pyrazol-4-yl)-3-phenylquinazolin-4(3H)-one], the IC50 is 340 nM.
`COc1ncc(-c2cccc3nc([C@@H]4C[C@H](OC)CN4c4nc(N)nc(C)c4C#N)n(-c4ccccc4)c(=O)c23)cn1` [Example 12, 2-Amino-4-((2S,4S)-4-methoxy-2-(5-(2-methoxypyrimidin-5-yl)-4-oxo-3-phenyl-3,4-dihydroquinazolin-2-yl)pyrrolidin-1-yl)-6-methylpyrimidine-5-carbonitrile]: the half-maximal inhibitory concentration (IC50) came to 120 nM.
Consider `Cc1ccccc1-n1c([C@@H]2CCCN2c2ncnc(N)c2C#N)nc2cccc(-c3cnn(C)c3)c2c1=O` [Example 14, (S)-4-Amino-6-(2-(5-(1-methyl-1H-pyrazol-4-yl)-4-oxo-3-(otolyl)-3,4-dihydroquinazolin-2-yl)pyrrolidin-1-yl)pyrimidine-5-carbonitrile], for which the IC50 came to 210 nM.
Take `Cn1cnc(-c2cccc3nc([C@@H]4CCCN4c4ncnc(N)c4C#N)n(-c4ccccc4)c(=O)c23)c1` [Example 15, (S)-4-Amino-6-(2-(5-(1-methyl-1H-imidazol-4-yl)-4-oxo-3-phenyl-3,4-dihydroquinazolin-2-yl)pyrrolidin-1-yl)pyrimidine-5-carbonitrile]: the IC50 was greater than 10000 nM.
`Cc1nc(N)nc(N2C[C@@H](O)C[C@H]2c2nc3cccc(-c4cnn(C)c4)c3c(=O)n2-c2ccccc2)c1C#N` [Example 16, 2-Amino-4-((2S,4S)-4-hydroxy-2-(5-(1-methyl-1H-pyrazol-4-yl)-4-oxo-3-phenyl-3,4-dihydroquinazolin-2-yl)pyrrolidin-1-yl)-6-methylpyrimidine-5-carbonitrile]: the concentration for half-maximal inhibition (IC50) came to 55 nM.
As for `Cc1nc(N)nc(N2CCC[C@H]2c2nc3cccc(-c4cncnc4)c3c(=O)n2-c2ccccc2)c1C#N` [Example 17, (S)-2-Amino-4-methyl-6-(2-(4-oxo-3-phenyl-5-(pyrimidin-5-yl)-3,4-dihydroquinazolin-2-yl)pyrrolidin-1-yl)pyrimidine-5-carbonitrile], the concentration for half-maximal inhibition (IC50) is 290 nM.
`COc1cncc(-c2cccc3nc([C@@H]4CCCN4c4nc(N)nc(C)c4C#N)n(-c4ccccc4)c(=O)c23)c1` [Example 18, (S)-2-Amino-4-(2-(5-(5-methoxypyridin-3-yl)-4-oxo-3-phenyl-3,4-dihydroquinazolin-2-yl)pyrrolidin-1-yl)-6-methylpyrimidine-5-carbonitrile]: the IC50 came out at 16 nM.
Consider `Cc1ncc(-c2cccc3nc([C@@H]4CCCN4c4nc(N)nc(C)c4C#N)n(-c4ccccc4)c(=O)c23)cn1` [Example 19, (S)-2-Amino-4-methyl-6-(2-(5-(2-methylpyrimidin-5-yl)-4-oxo-3-phenyl-3,4-dihydroquinazolin-2-yl)pyrrolidin-1-yl)pyrimidine-5-carbonitrile], for which the 50% inhibitory concentration (IC50) is 220 nM.
Take `Cc1nc(N)nc(N2CCC[C@H]2c2nc3cccc(-c4cccnc4)c3c(=O)n2-c2ccccc2)c1C#N` [Example 20, (S)-2-Amino-4-methyl-6-(2-(4-oxo-3-phenyl-5-(pyridin-3-yl)-3,4-dihydroquinazolin-2-yl)pyrrolidin-1-yl)pyrimidine-5-carbonitrile]: the IC50 was 270 nM.
As for `COc1ccc(-c2cccc3nc([C@@H]4CCCN4c4nc(N)nc(C)c4C#N)n(-c4ccccc4)c(=O)c23)cn1` [Example 21, (S)-2-Amino-4-(2-(5-(6-methoxypyridin-3-yl)-4-oxo-3-phenyl-3,4-dihydroquinazolin-2-yl)pyrrolidin-1-yl)-6-methylpyrimidine-5-carbonitrile], the figure is 1100 nM.
